Our source for the EC50 values is patent publication US11149036B2, “3-(1H-pyrazol-4-yl)pyridine allosteric modulators of the M4 muscarinic acetylcholine receptor” (Merck Sharp & Dohme Corp., priority 2017, dated 2021).

SMILES strings stand for the structures.

For this assay, the target named is T1, human M4 muscarinic acetylcholine receptor (Homo sapiens, UniProt P08173).
T1 construct: expressed in transfected cells; host or cells: CHO-K1
T1 sequence (P08173 1-479): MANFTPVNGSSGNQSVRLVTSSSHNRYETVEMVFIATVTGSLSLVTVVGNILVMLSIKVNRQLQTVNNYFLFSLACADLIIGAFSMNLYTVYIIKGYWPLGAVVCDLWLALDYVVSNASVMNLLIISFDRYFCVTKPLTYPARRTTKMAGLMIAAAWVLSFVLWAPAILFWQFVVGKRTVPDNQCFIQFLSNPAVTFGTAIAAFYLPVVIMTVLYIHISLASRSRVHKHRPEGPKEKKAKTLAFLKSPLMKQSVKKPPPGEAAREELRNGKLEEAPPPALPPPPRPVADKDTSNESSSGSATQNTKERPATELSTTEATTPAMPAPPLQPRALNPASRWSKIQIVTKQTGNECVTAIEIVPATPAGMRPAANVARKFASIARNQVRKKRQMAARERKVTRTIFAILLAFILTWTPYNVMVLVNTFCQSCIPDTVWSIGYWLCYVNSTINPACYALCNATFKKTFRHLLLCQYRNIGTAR
Kind of assay: human FLIPR-based M4 PAM assay (CHO-K1 cells with human M4 receptor and Gaqi5, calcium dye fluorescence). The class given is cell-based. As to conditions: inflection point (IP) of dose response curve, acetylcholine added at 20% of maximum response, read-out: M4 FLIPPR Hu IP. As to the method: (§1) In a typical experiment the M4 muscarinic acetylcholine receptor modulating activity of the compounds of the present invention was determined in accordance with the following experimental method. CHO-K1 cells stably transfected with human M4 receptor and chimeric G-protein Gaqi5 (Coward P, et al., Analytical Biochemistry, 270:242-248 (1999)) are thawed from liquid N2 storage, resuspended in growth medium, plated in black, clear bottom 384 well plates, and incubated 16-20 hours at 37° C., 5% CO2. On the day of assay, growth medium is removed, the cells are washed 2 times with wash buffer, and cells are incubated in dye loading buffer at 37° C., 5% CO2 for ˜1 hour. Following dye loading the cell plates are placed in a FLIPR Tetra instrument and while monitoring dye fluorescence (excitation 470-495 […]), 10 uL of test substance at increasing concentrations is added, and fluorescence values are recorded for 4 min. Next, 10 uL of acetylcholine is added (final concentration calculated so as to achieve 20% of the maximum acetycholine response), and the fluorescence reading is continued for 3.5 min. In some cases, a third addition of acetylcholine (final concentration calculated to achieve 70% of the maximal acetylcholine response) is performed. The resulting dose response curves are fit to a 4 parameter logistic equation and the final result is determined as the inflection point (IP) of the curve
as §1, with “CHO-K1” for “In a typical experiment the M4 muscarinic acetylcholine receptor modulating activity of the compounds of the present invention was determined in accordance with the following experimental method. CHO-K1”, “Gaqi5” for “Gaqi5 (Coward P, et al., Analytical Biochemistry, 270:242-248 (1999))”, “performed.” for “performed. The resulting dose response curves are fit to a 4 parameter logistic equation and the final result is determined as the inflection point (IP) of the curve”
Take `Cc1ccc(-c2cnn(CC3C[C@@H](F)[C@@H](F)C3)c2)c(-c2ccc3cccnc3c2)n1` (mixture of isomers) [Example 27, 7-(3-(1-(((3R,4S and 3S,4R)-3,4-difluorocyclopentyl)methyl)-1H-pyrazol-4-yl)-6-methylpyridin-2-yl)quinoline (+/−)]: the EC50 stood at 64 nM.
Then `Cc1ccc(-c2cnn(CC3C[C@H](F)[C@@H](F)C3)c2)c(-c2ccc3cccnc3c2)n1` (racemic) [Example 29, 7-(3-(1-(((3S,4S and 3R,4R)-3,4-difluorocyclopentyl)methyl)-1H-pyrazol-4-yl)-6-methylpyridin-2-yl)quinoline], with 39 nM; and `Cc1ccc(-c2cnn(C[C@H]3CC[C@H](F)C3)c2)c(-c2ccc3cccnc3c2)n1` (racemic) [Example 30, 7-(3-(1-(((1S,3S and 1R,3R)-3-fluorocyclopentyl)methyl)-1H-pyrazol-4-yl)-6-methylpyridin-2-yl)quinoline], with 32 nM; and `Cc1ccc(-c2cnn(C[C@@H]3CC[C@H](F)C3)c2)c(-c2ccc3cccnc3c2)n1` (racemic) [Example 31, 7-(3-(1-(((1R,3S and 1S,3R)-3-fluorocyclopentyl)methyl)-1H-pyrazol-4-yl)-6-methylpyridin-2-yl)quinoline], with 29 nM.
For the molecule `Cc1ccc(-c2cnn(CC3CCC(F)(F)C3)c2)c(-c2ccc3cccnc3c2)n1` (single isomer, unassigned) [Example 129, (S or R)-7-(3-(1-((3,3-difluorocyclopentyl)methyl)-1H-pyrazol-4-yl)-6-methylpyridin-2-yl)quinoline], the EC50 came to 22 nM.
To `Cc1ccc(-c2cnn(CC3CCC(F)(F)C3)c2)c(-c2ccc3cccnc3c2)n1` (single isomer, unassigned) [Example 130, (R or S)-7-(3-(1-((3,3-difluorocyclopentyl)methyl)-1H-pyrazol-4-yl)-6-methylpyridin-2-yl)quinoline] belongs 25 nM; to `Cc1ccc(-c2cnn(C[C@H]3CC[C@H](F)C3)c2)c(-c2ccc3cccnc3c2)n1` (single isomer, unassigned) [Example 131, 7-(3-(1-(((1S,3S) or (1R,3R)-3-fluorocyclopentyl)methyl)-1H-pyrazol-4-yl)-6-methylpyridin-2-yl)quinoline], 31 nM.
Then `Cc1ccc(-c2cnn(C[C@@H]3CC[C@@H](F)C3)c2)c(-c2ccc3cccnc3c2)n1` (single isomer, unassigned) [Example 132, 7-(3-(1-(((1R,3R) or (1S,3S)-3-fluorocyclopentyl)methyl)-1H-pyrazol-4-yl)-6-methylpyridin-2-yl)quinoline], with 17 nM; and `Cc1ccc(-c2cnn(C[C@@H]3CC[C@H](F)C3)c2)c(-c2ccc3cccnc3c2)n1` (single isomer, unassigned) [Example 133, 7-(3-(1-(((1R,3S) or (1S,3R)-3-fluorocyclopentyl)methyl)-1H-pyrazol-4-yl)-6-methylpyridin-2-yl)quinoline], with 17 nM.
On to `Cc1ccc(-c2cnn(C[C@H]3CC[C@@H](F)C3)c2)c(-c2ccc3cccnc3c2)n1` (single isomer, unassigned) [Example 134, 7-(3-(1-(((1S,3R) or (1R,3S)-3-fluorocyclopentyl)methyl)-1H-pyrazol-4-yl)-6-methylpyridin-2-yl)quinoline], for which the EC50 worked out at 26 nM.
Then `COc1cc2ccc(-c3nc(C)ccc3-c3cnn(CC4(C)CCC(=O)C4)c3)cc2nn1` (single isomer, unassigned) [Example 148, (S or R)-3-((4-(2-(3-methoxycinnolin-7-yl)-6-methylpyridin-3-yl)-1H-pyrazol-1-yl)methyl)-3-methylcyclopentan-1-one], with 67 nM; and `COc1cc2ccc(-c3nc(C)ccc3-c3cnn(CC4(C)CCC(F)(F)C4)c3)cc2nn1` (single isomer, unassigned) [Example 150, (R or S)-7-(3-(1-((3,3-difluoro-1-methylcyclopentyl)methyl)-1H-pyrazol-4-yl)-6-methylpyridin-2-yl)-3-methoxycinnoline], with 22 nM; and `N#Cc1ccc(-c2cnn(CC3CCC(F)C3)c2)c(-c2ccc3cccnc3c2)n1` (single isomer, unassigned) [compound 146, 5-(1-(((1R,3S) or (1S,3R)-3-fluoro-cyclopentyl)methyl)-1H-pyrazol-4-yl)-6-(quinolin-7-yl)picolinonitrile], with 50 nM.
In the case of `COc1cc2ccc(-c3nc(C)ccc3-c3cnn(CC4(C)CCC(=O)C4)c3)cc2nn1` (single isomer, unassigned; isomer a) [Example 149, 3-((4-(2-(3-methoxycinnolin-7-yl)-6-methylpyridin-3-yl)-1H-pyrazol-1-yl)methyl)-3-methylcyclopentan-1-one isomer A], the EC50 turned out to be 200 nM.
To `COc1cc2ccc(-c3nc(C)ccc3-c3cnn(CC4(C)CCC(F)(F)C4)c3)cc2nn1` (single isomer, unassigned; isomer b) [Example 151, (S or R)-7-(3-(1-((3,3-difluoro-1-methylcyclo-pentyl)methyl)-1H-pyrazol-4-yl)-6-methylpyridin-2-yl)-3-methoxycinnoline isomer B] belongs 30 nM; to `Cc1ccc(-c2cnn(CC3(F)CCCC3)c2)c(-c2ccc3c(c2)C(=O)N(C)C3)n1` [Example 1, 6-(3-(1-((1-fluorocyclopentyl)methyl)-1H-pyrazol-4-yl)-6-methylpyridin-2-yl)-2-methylisoindolin-1-one], 17 nM.
On to `Cc1cn2ccc(-c3nc(C#N)ccc3-c3cnn(CC4(F)CCCC4)c3)cc2n1` [Example 3, 5-(1-((1-fluorocyclopentyl)methyl)-1H-pyrazol-4-yl)-6-(2-methylimidazo[1,2-a]pyridin-7-yl)picolinonitrile], for which the EC50 is 12 nM.
To `Cc1cn2ccc(-c3ncccc3-c3cnn(CC4C[C@H](F)[C@@H](F)C4)c3)cc2n1` [Example 4, 7-(3-(1-(((3S,4S)-3,4-difluorocyclopentyl)methyl)-1H-pyrazol-4-yl)pyridin-2-yl)-2-methylimidazo[1,2-a] pyridine] belongs 63 nM; to `Cc1cn2ccc(-c3ncccc3-c3cnn(CC4C[C@@H](F)[C@H](F)C4)c3)cc2n1` [Example 5, 7-(3-(1-(((3R,4R)-3,4-difluorocyclopentyl)methyl)-1H-pyrazol-4-yl)pyridin-2-yl)-2-methylimidazo[1,2-a]pyridine], 87 nM; to `Cc1ccc(-c2nc(C)ccc2-c2cnn(CC3CCCC3)c2)cc1` [Example 6, 3-(1-(cyclopentylmethyl)-1H-pyrazol-4-yl)-6-methyl-2-(p-tolyl)pyridine], 72 nM.
In the case of `Cc1ccc(-c2cnn(CC3CCCC3)c2)c(-c2cnc3c(c2)ncn3C)n1` [Example 7, 6-(3-(1-(cyclopentylmethyl)-1H-pyrazol-4-yl)-6-methylpyridin-2-yl)-3-methyl-3H-imidazo[4,5-b]pyridine], the EC50 turned out to be 94 nM.
In the case of `Cc1ccc(-c2cnn(CC3CCCC3)c2)c(-c2ccc(CCCO)cc2)n1` [Example 8, 3-(4-(3-(1-(cyclopentylmethyl)-1H-pyrazol-4-yl)-6-methylpyridin-2-yl)phenyl)propan-1-ol], the EC50 came out at 54 nM.
`Cc1ccc(-c2cnn(CC3CCCC3)c2)c(-c2ccc(C(O)C(F)(F)F)cc2)n1` (stereo not drawn) [Example 9, 1-(4-(3-(1-(cyclopentylmethyl)-1H-pyrazol-4-yl)-6-methylpyridin-2-yl)phenyl)-2,2,2-trifluoroethan-1-ol]: the EC50 was 50 nM.
For the molecule `COc1cnc2cc(-c3nc(C)ccc3-c3cnn(CC4(C)CCCC4)c3)ccc2c1` [Example 10, 3-methoxy-7-(6-methyl-3-(1-((1-methylcyclopentyl)methyl)-1H-pyrazol-4-yl)pyridin-2-yl)quinoline], the EC50 came out at 25 nM.
